System: NOMO1
Test: cell viability relative to DMSO control; higher = less cytotoxic
Details: 48 h
In short: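 NOMO1 or SEM (500 cells/well) or P12-Ichikawa (1000 cells/well) leukemia cells were adapted for at least four passages in each medium. They were seeded in 1536-well plates (5 μl) and pin-dosed with library compounds in DMSO over an 11-point threefold series, 47 μM to 0.79 nM. CellTiter-Glo One luminescence was read after 48 h at 37°C. Viability is the per-plate percentage relative to DMSO wells, with cell-free wells as background.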

[1] = HPLM + 10% dialyzed FBS, 0.000781 µM
[2] = HPLM + 10% dialyzed FBS, 0.00234 µM
[3] = HPLM + 10% dialyzed FBS, 0.00702 µM
[4] = HPLM + 10% dialyzed FBS, 0.0211 µM
[5] = HPLM + 10% dialyzed FBS, 0.0632 µM
[6] = HPLM + 10% dialyzed FBS, 0.19 µM
[7] = HPLM + 10% dialyzed FBS, 0.569 µM
[8] = HPLM + 10% dialyzed FBS, 1.71 µM
[9] = HPLM + 10% dialyzed FBS, 5.12 µM
[10] = HPLM + 10% dialyzed FBS, 15.4 µM
[11] = HPLM + 10% dialyzed FBS, 46.1 µM
[12] = RPMI 5 mM glucose + 10% FBS, 0.000781 µM
[13] = RPMI 5 mM glucose + 10% FBS, 0.00234 µM
[14] = RPMI 5 mM glucose + 10% FBS, 0.00702 µM
[15] = RPMI 5 mM glucose + 10% FBS, 0.0211 µM
[16] = RPMI 5 mM glucose + 10% FBS, 0.0632 µM
[17] = RPMI 5 mM glucose + 10% FBS, 0.19 µM
[18] = RPMI 5 mM glucose + 10% FBS, 0.569 µM
[19] = RPMI 5 mM glucose + 10% FBS, 1.71 µM
[20] = RPMI 5 mM glucose + 10% FBS, 5.12 µM
[21] = RPMI 5 mM glucose + 10% FBS, 15.4 µM
[22] = RPMI 5 mM glucose + 10% FBS, 46.1 µM
[23] = RPMI 5 mM glucose + 10% dialyzed FBS, 0.000781 µM
[24] = RPMI 5 mM glucose + 10% dialyzed FBS, 0.00234 µM
[25] = RPMI 5 mM glucose + 10% dialyzed FBS, 0.00702 µM
[26] = RPMI 5 mM glucose + 10% dialyzed FBS, 0.0211 µM
[27] = RPMI 5 mM glucose + 10% dialyzed FBS, 0.0632 µM
[28] = RPMI 5 mM glucose + 10% dialyzed FBS, 0.19 µM
[29] = RPMI 5 mM glucose + 10% dialyzed FBS, 0.569 µM
[30] = RPMI 5 mM glucose + 10% dialyzed FBS, 1.71 µM
[31] = RPMI 5 mM glucose + 10% dialyzed FBS, 5.12 µM
[32] = RPMI 5 mM glucose + 10% dialyzed FBS, 15.4 µM
[33] = RPMI 5 mM glucose + 10% dialyzed FBS, 46.1 µM

## CC(NC1=CC=CC=C1)C\2=C\C(=C/N3C(=O)\C=C(/N=C23)N4CCOCC4)C (stereo unspecified)
[1]
  cell viability: 91.6%
[2]
  cell viability: 106%
[3]
  cell viability: 115%
[4]
  cell viability: 105%
[5]
  cell viability: 114%
[6]
  cell viability: 117%
[7]
  cell viability: 125%
[8]
  cell viability: 118%
[9]
  cell viability: 108%
[10]
  cell viability: 99.6%
[11]
  cell viability: 87.6%
[12]
  cell viability: 92.7%
[13]
  cell viability: 96.3%
[14]
  cell viability: 97.7%
[15]
  cell viability: 109%
[16]
  cell viability: 109%
[17]
  cell viability: 102%
[18]
  cell viability: 115%
[19]
  cell viability: 99.8%
[20]
  cell viability: 108%
[21]
  cell viability: 105%
[22]
  cell viability: 108%
[23]
  cell viability: 95.7%
[24]
  cell viability: 92.9%
[25]
  cell viability: 111%
[26]
  cell viability: 110%
[27]
  cell viability: 105%
[28]
  cell viability: 116%
[29]
  cell viability: 109%
[30]
  cell viability: 108%
[31]
  cell viability: 94.7%
[32]
  cell viability: 96.7%
[33]
  cell viability: 83%

## CCCCCCCCCCCCCCCCCCCCCCO
[1]
  cell viability: 108%
[2]
  cell viability: 134%
[3]
  cell viability: 120%
[4]
  cell viability: 140%
[5]
  cell viability: 125%
[6]
  cell viability: 150%
[7]
  cell viability: 133%
[8]
  cell viability: 148%
[9]
  cell viability: 147%
[10]
  cell viability: 147%
[11]
  cell viability: 129%
[23]
  cell viability: 121%
[24]
  cell viability: 107%
[25]
  cell viability: 129%
[26]
  cell viability: 128%
[27]
  cell viability: 132%
[28]
  cell viability: 140%
[29]
  cell viability: 141%
[30]
  cell viability: 140%
[31]
  cell viability: 123%
[32]
  cell viability: 143%
[33]
  cell viability: 145%

## CN(C)CCOc1cc(-c2cn[nH]c2)ccc1NC(=O)C1COc2ccccc2O1 (stereo unspecified)
[1]
  cell viability: 84.2%
[2]
  cell viability: 104%
[3]
  cell viability: 118%
[4]
  cell viability: 122%
[5]
  cell viability: 118%
[6]
  cell viability: 106%
[7]
  cell viability: 119%
[8]
  cell viability: 107%
[9]
  cell viability: 122%
[10]
  cell viability: 93.9%
[11]
  cell viability: 67.1%
[12]
  cell viability: 105%
[13]
  cell viability: 93.2%
[14]
  cell viability: 110%
[15]
  cell viability: 127%
[16]
  cell viability: 94.7%
[17]
  cell viability: 97.5%
[18]
  cell viability: 114%
[19]
  cell viability: 96.3%
[20]
  cell viability: 85.4%
[21]
  cell viability: 81.5%
[22]
  cell viability: 64.3%
[23]
  cell viability: 98.5%
[24]
  cell viability: 100%
[25]
  cell viability: 106%
[26]
  cell viability: 112%
[27]
  cell viability: 114%
[28]
  cell viability: 97.7%
[29]
  cell viability: 102%
[30]
  cell viability: 96.9%
[31]
  cell viability: 91.5%
[32]
  cell viability: 71.8%
[33]
  cell viability: 77%

## COC1=NC(=NC(=C1N\C2=N\CCN2)Cl)C
[1]
  cell viability: 113%
[2]
  cell viability: 94.9%
[3]
  cell viability: 90.3%
[4]
  cell viability: 93.6%
[5]
  cell viability: 111%
[6]
  cell viability: 104%
[7]
  cell viability: 89.5%
[8]
  cell viability: 109%
[9]
  cell viability: 82%
[10]
  cell viability: 97.6%
[11]
  cell viability: 84.8%
[12]
  cell viability: 79.1%
[13]
  cell viability: 83.8%
[14]
  cell viability: 89.1%
[15]
  cell viability: 93.1%
[16]
  cell viability: 94%
[17]
  cell viability: 100%
[18]
  cell viability: 84.2%
[19]
  cell viability: 91.8%
[20]
  cell viability: 92.5%
[21]
  cell viability: 86.5%
[22]
  cell viability: 90%
[23]
  cell viability: 86.2%
[24]
  cell viability: 85.8%
[25]
  cell viability: 82.8%
[26]
  cell viability: 85%
[27]
  cell viability: 95.6%
[28]
  cell viability: 94%
[29]
  cell viability: 91.3%
[30]
  cell viability: 86.5%
[31]
  cell viability: 80.3%
[32]
  cell viability: 89.5%
[33]
  cell viability: 85.3%

## CCC(C)SSc1ncc[nH]1 (stereo unspecified)
[1]
  cell viability: 88%
[2]
  cell viability: 85.5%
[3]
  cell viability: 94.8%
[4]
  cell viability: 103%
[5]
  cell viability: 102%
[6]
  cell viability: 105%
[7]
  cell viability: 90.3%
[8]
  cell viability: 87.4%
[9]
  cell viability: 104%
[10]
  cell viability: 53.6%
[11]
  cell viability: 12.6%
[12]
  cell viability: 86%
[13]
  cell viability: 93.9%
[14]
  cell viability: 97.7%
[15]
  cell viability: 98.2%
[16]
  cell viability: 92.5%
[17]
  cell viability: 93.1%
[18]
  cell viability: 96.5%
[19]
  cell viability: 104%
[20]
  cell viability: 104%
[21]
  cell viability: 67.5%
[22]
  cell viability: 13.6%
[23]
  cell viability: 89%
[24]
  cell viability: 97.6%
[25]
  cell viability: 89.2%
[26]
  cell viability: 101%
[27]
  cell viability: 94.5%
[28]
  cell viability: 94.5%
[29]
  cell viability: 94.8%
[30]
  cell viability: 105%
[31]
  cell viability: 101%
[32]
  cell viability: 81.8%
[33]
  cell viability: 9.7%

## CCC[C@H](NC(=O)/C(C#N)=C/c1cccc(Br)n1)c1ccccc1
[12]
  cell viability: 110%
[13]
  cell viability: 123%
[14]
  cell viability: 116%
[15]
  cell viability: 111%
[16]
  cell viability: 111%
[17]
  cell viability: 107%
[18]
  cell viability: 103%
[19]
  cell viability: 108%
[20]
  cell viability: 104%
[21]
  cell viability: 111%
[22]
  cell viability: 4.55%
[23]
  cell viability: 109%
[24]
  cell viability: 114%
[25]
  cell viability: 122%
[26]
  cell viability: 115%
[27]
  cell viability: 109%
[28]
  cell viability: 117%
[29]
  cell viability: 120%
[30]
  cell viability: 116%
[31]
  cell viability: 108%
[32]
  cell viability: 99.9%
[33]
  cell viability: 4.54%

## COC1=C(N2CCNC(C)C2)C(=CC3=C1N(\C=C(C(O)=O)/C3=O)C4CC4)F (stereo unspecified)
[1]
  cell viability: 89.4%
[2]
  cell viability: 82.7%
[3]
  cell viability: 103%
[4]
  cell viability: 115%
[5]
  cell viability: 105%
[6]
  cell viability: 123%
[7]
  cell viability: 103%
[8]
  cell viability: 117%
[9]
  cell viability: 95.2%
[10]
  cell viability: 92.8%
[11]
  cell viability: 77.2%
[12]
  cell viability: 100%
[13]
  cell viability: 87.7%
[14]
  cell viability: 88.6%
[15]
  cell viability: 99.5%
[16]
  cell viability: 96%
[17]
  cell viability: 96.8%
[18]
  cell viability: 96.6%
[19]
  cell viability: 104%
[20]
  cell viability: 20.3%
[21]
  cell viability: 111%
[22]
  cell viability: 103%
[23]
  cell viability: 97.6%
[24]
  cell viability: 86.9%
[25]
  cell viability: 98.2%
[26]
  cell viability: 94.3%
[27]
  cell viability: 100%
[28]
  cell viability: 110%
[29]
  cell viability: 94%
[30]
  cell viability: 99.3%
[31]
  cell viability: 74.2%
[32]
  cell viability: 99.1%
[33]
  cell viability: 95.8%

## O=C(NCC[S+](=O)([O-])c1ccc(C(F)(F)F)cn1)c1ccc(Cl)cc1
[1]
  cell viability: 127%
[2]
  cell viability: 117%
[3]
  cell viability: 119%
[4]
  cell viability: 117%
[5]
  cell viability: 119%
[6]
  cell viability: 120%
[7]
  cell viability: 132%
[8]
  cell viability: 117%
[9]
  cell viability: 105%
[10]
  cell viability: 122%
[11]
  cell viability: 106%
[12]
  cell viability: 122%
[13]
  cell viability: 144%
[14]
  cell viability: 116%
[15]
  cell viability: 134%
[16]
  cell viability: 135%
[17]
  cell viability: 127%
[18]
  cell viability: 123%
[19]
  cell viability: 118%
[20]
  cell viability: 130%
[21]
  cell viability: 128%
[22]
  cell viability: 110%
